These results are taken from article PMC12668308, “A Novel Antimalarial Agent that Inhibits Protein Synthesis in Plasmodium falciparum” (Angewandte Chemie (International Ed. in English), 2025).

In the first experiment the test system is P. falciparum NF54 strain. As to the kind of experiment: [3H]-hypoxanthine incorporation assay, asexual blood stage. Type of experiment: cell-based, Plasmodium falciparum. The following applies: PfNF54 IC50. The procedure:
P. falciparum asexual blood stage parasites were cultured in human red blood cells (RBC, Blutspende SRK, Zurich) at a hematocrit of 5% in RPMI 1640 medium. The RPMI 1640 medium (ThermoFisher Scientific #51800−043) was supplemented with the following: 24 mM NaHCO3 (pH 7.3, Sigma-Aldrich #31437−500G-R), 25 mM Hepes (Sigma-Aldrich #H4034−500G), 0.36 mM hypoxanthine (Sigma-Aldrich # H9377−25G), 100 µg mL^-1 neomycin (Sigma-Aldrich #N6386−100G) and 0.5% Albumax II (Thermo Fisher #11021−045). Additionally, 2 mM choline chloride (279 mg/L, Sigma-Aldrich #C7527−100G) was added to the culture to block the induction of sexual commitment as described. ^[31^] The RPMI 1640 medium and components were dissolved in water (Milli-Q purified), stirred for at least 3 h, and then sterile filtered (0.22 μm pore size) with a bottle top filter (Corning # 431118). Parasite cultures were maintained in an atmosphere of 3% O2, 4% CO2, and 93% N2 in air-tight chambers at 37 °C. The [^3H]-hypoxanthine incorporation assay was used to test compound activity in the specific parasite lines as described.^[32^] Briefly, compounds were dissolved in DMSO (10 mM) and diluted in a hypoxanthine-free culture medium. A limiting dilution was performed over a 64-fold range (6-step twofold dilution) in a 96-well plate in duplicates. For every starting concentration, a limiting dilution was performed over a 64-fold range (6-step twofold dilution) in a 96-well plate in two biological duplicates. Parasites were added at 100 µL to each well containing the compound to obtain a final parasitemia of 0.3% and haematocrit of 1.25%. The plates were incubated for 48 h before 0.25 µCi of [^3H]-hypoxanthine was added per well for an additional 24 h. Parasites were harvested on a glass-fiber filter with a Microbeta FilterMate cell harvester (Perkin Elmer, Waltham, USA) and radioactivity was counted using a MicroBeta2 liquid scintillation counter (Perkin Elmer, Waltham, US). […] The fifty percent inhibitory concentration (IC50) was calculated by using nonlinear, four parameter (variable slope) curve fitting as described ^[33^] after importing into GraphPad Prism (version 8.3.0).
Consider `O=C(Nc1cc(S(=O)(=O)N2CCCC2)ccc1O)c1cccc(Oc2cc(C(F)(F)F)ccn2)c1` [Compound 23, N-(2-Hydroxy-5-(pyrrolidin-1-ylsulfonyl)phenyl)-3-((4-(trifluoromethyl)pyridin-2-yl)oxy)benzamide], for which the “fold increased activity compared to the initial hit molecule 1” value is reported as “about 8 fold”.

Staying with this experiment, now noted: Plasmodium falciparum, NF54, asexual blood stage; mean ± s.d.; read-out: PfNF54 IC50 ± s.d.
`COc1ccc(S(=O)(=O)N2CCCC2)cc1NC(=O)c1cccc(Oc2ccccc2)c1` [Compound 2, N-(2-Methoxy-5-(pyrrolidin-1-ylsulfonyl)phenyl)-3-phenoxybenzamide]: the half-inhibitory concentration (IC50) was > 10000 nM.

As to `COc1ccc(S(=O)(=O)N2CCCC2)cc1N(C)C(=O)c1cccc(Oc2ccccc2)c1` [Compound 3, N-(2-methoxy-5-(pyrrolidin-1-ylsulfonyl)phenyl)-N-methyl-3-phenoxybenzamide], the IC50 is > 10000 nM.

For the compound `CN(C(=O)c1cccc(Oc2ccccc2)c1)c1cc(S(=O)(=O)N2CCCC2)ccc1O` [Compound 4, N-(2-Hydroxy-5-(pyrrolidin-1-ylsulfonyl)phenyl)-N-methyl-3-phenoxybenzamide], the concentration for half-maximal inhibition (IC50) is > 10000 nM.

Take `O=C(Nc1cccc(S(=O)(=O)N2CCCC2)c1)c1cccc(Oc2ccccc2)c1` [Compound 5, 3-Phenoxy-N-(3-(pyrrolidin-1-ylsulfonyl)phenyl)benzamide]: the half-maximal inhibitory concentration (IC50) came to 4930 ± 97.8 nM.

`NS(=O)(=O)c1ccc(O)c(NC(=O)c2cccc(Oc3ccccc3)c2)c1` [Compound 6, N-(2-Hydroxy-5-sulfamoylphenyl)-3-phenoxybenzamide]: the concentration for half-maximal inhibition (IC50) amounted to 777 ± 86 nM.

Consider `CCS(=O)(=O)c1ccc(O)c(NC(=O)c2cccc(Oc3ccccc3)c2)c1` [Compound 7, N-(5-(Ethylsulfonyl)-2-hydroxyphenyl)-3-phenoxybenzamide], for which the IC50 was 217 ± 42.4 nM.

As to `CCCCNS(=O)(=O)c1ccc(O)c(NC(=O)c2cccc(Oc3ccccc3)c2)c1` [Compound 8, N-(5-(N-Butylsulfamoyl)-2-hydroxyphenyl)-3-phenoxybenzamide], the 50% inhibitory concentration (IC50) turned out to be 1910 ± 254 nM.

With `O=C(Nc1cc(S(=O)(=O)N2CCCCC2)ccc1O)c1cccc(Oc2ccccc2)c1` [Compound 9, N-(2-Hydroxy-5-(piperidin-1-ylsulfonyl)phenyl)-3-phenoxybenzamide], the half-maximal inhibitory concentration (IC50) worked out at 574 ± 66.5 nM.

Take `CC1(C)CCN(S(=O)(=O)c2ccc(O)c(NC(=O)c3cccc(Oc4ccccc4)c3)c2)C1` [Compound 10, N-(5-((3,3-diMethylpyrrolidin-1-yl)sulfonyl)-2-hydroxyphenyl)-3-phenoxybenzamide]: the 50% inhibitory concentration (IC50) is 1410 ± 147 nM.

With `CC1CCN(S(=O)(=O)c2ccc(O)c(NC(=O)c3cccc(Oc4ccccc4)c3)c2)CC1` [Compound 11, N-(2-Hydroxy-5-((4-methylpiperidin-1-yl)sulfonyl)phenyl)-3-phenoxybenzamide], the IC50 is 1030 ± 116 nM.

For the compound `O=C(Nc1cc(S(=O)(=O)N2CCOCC2)ccc1O)c1cccc(Oc2ccccc2)c1` [Compound 12, N-(2-Hydroxy-5-(morpholinosulfonyl)phenyl)-3-phenoxybenzamide], the half-inhibitory concentration (IC50) was determined as 197 ± 28 nM.

For `O=C(Nc1cc(S(=O)(=O)NCC2CCCCC2)ccc1O)c1cccc(Oc2ccccc2)c1` [Compound 13, N-(5-(N-(Cyclohexylmethyl)sulfamoyl)-2-hydroxyphenyl)-3-phenoxybenzamide], the IC50 was > 10000 nM.

Turning to `O=C(Nc1cc(S(=O)(=O)NCc2ccccc2)ccc1O)c1cccc(Oc2ccccc2)c1` [Compound 14, N-(5-(N-Benzylsulfamoyl)-2-hydroxyphenyl)-3-phenoxybenzamide], the half-maximal inhibitory concentration (IC50) was found to be 2780 ± 389 nM.

For `O=C(Nc1cc(S(=O)(=O)N2CCCC2)ccc1O)c1ccc(Oc2ccccc2)cc1` [Compound 15, N-(2-Hydroxy-5-(pyrrolidin-1-ylsulfonyl)phenyl)-4-phenoxybenzamide], the concentration for half-maximal inhibition (IC50) was 539 ± 92.2 nM.

As for `O=C(Nc1cc(S(=O)(=O)N2CCCC2)ccc1O)c1cccc(Oc2cccc(F)c2)c1` [Compound 16, 3-(3-Fluorophenoxy)-N-(2-hydroxy-5-(pyrrolidin-1-ylsulfonyl)phenyl)benzamide], the IC50 came out at 361 ± 83 nM.

For `O=C(Nc1cc(S(=O)(=O)N2CCCC2)ccc1O)c1cccc(Oc2ccc(Cl)c(C(F)(F)F)c2)c1` [Compound 17, 3-(4-Chloro-3-(trifluoromethyl)phenoxy)-N-(2-hydroxy-5-(pyrrolidin-1-ylsulfonyl)phenyl)benzamide], the IC50 worked out at 2315 ± 8.5 nM.

In the case of `Cc1ccc(C(C)C)cc1Oc1cccc(C(=O)Nc2cc(S(=O)(=O)N3CCCC3)ccc2O)c1` [Compound 18, N-(2-hydroxy-5-(pyrrolidin-1-ylsulfonyl)phenyl)-3-(5-isopropyl-2-methylphenoxy)benzamide], the IC50 stood at 1500 ± 81.2 nM.

`O=C(Nc1cc(S(=O)(=O)N2CCCC2)ccc1O)c1cccc(Oc2ccccn2)c1` [Compound 19, N-(2-Hydroxy-5-(pyrrolidin-1-ylsulfonyl)phenyl)-3-(pyridin-2-yloxy)benzamide]: the IC50 was determined as 1450 ± 80 nM.

As for `O=C(Nc1cc(S(=O)(=O)N2CCCC2)ccc1O)c1cccc(Oc2cccc(Cl)n2)c1` [Compound 20, 3-((6-Chloropyridin-2-yl)oxy)-N-(2-hydroxy-5-(pyrrolidin-1-ylsulfonyl)phenyl)benzamide], the IC50 was found to be 746 ± 21.3 nM.

`O=C(Nc1cc(S(=O)(=O)N2CCCC2)ccc1O)c1cccc(Oc2cccc(C(F)(F)F)n2)c1` [Compound 21, N-(2-Hydroxy-5-(pyrrolidin-1-ylsulfonyl)phenyl)-3-((6-(trifluoromethyl)pyridin-2-yl)oxy)benzamide]: the half-inhibitory concentration (IC50) was > 10000 nM.

With `Cc1cc(C(F)(F)F)cc(Oc2cccc(C(=O)Nc3cc(S(=O)(=O)N4CCCC4)ccc3O)c2)n1` [Compound 22, N-(2-hydroxy-5-(pyrrolidin-1-ylsulfonyl)phenyl)-3-((6-methyl-4-(trifluoromethyl)pyridin-2-yl)oxy)benzamide], the IC50 was found to be 216 ± 32.3 nM.

With `O=C(Nc1cc(S(=O)(=O)N2CCCC2)ccc1O)c1cccc(Oc2cc(C(F)(F)F)ccn2)c1` [Compound 23, N-(2-Hydroxy-5-(pyrrolidin-1-ylsulfonyl)phenyl)-3-((4-(trifluoromethyl)pyridin-2-yl)oxy)benzamide], the IC50 amounted to 69 nM.

Consider `CC(C)c1ccc(O)c(NC(=O)c2cccc(Oc3cc(C(F)(F)F)ccn3)c2)c1` [Compound 25, N-(2-Hydroxy-5-isopropylphenyl)-3-((4-(trifluoromethyl)pyridin-2-yl)oxy)benzamide], for which the IC50 came out at 34 ± 4 nM.

In the case of `O=C(Nc1cc(-n2cnnc2)ccc1O)c1cccc(Oc2cc(C(F)(F)F)ccn2)c1` [Compound 26, N-(2-Hydroxy-5-(4H-1,2,4-triazol-4-yl)phenyl)-3-((4-(trifluoromethyl)pyridin-2-yl)oxy)benzamide], the IC50 was found to be 158 ± 15.6 nM.

Regarding `CCN(CC)CCCNCc1ccc(O)c(NC(=O)c2cccc(Oc3cc(C(F)(F)F)ccn3)c2)c1` [Compound 28, N-(5-(((3-(diEthylamino)propyl)amino)methyl)-2-hydroxyphenyl)-3-((4-(trifluoromethyl)pyridin-2-yl)oxy)benzamide], the concentration for half-maximal inhibition (IC50) came to 41 ± 17.2 nM.

With `CN(Cc1ccc(O)c(NC(=O)c2cccc(Oc3cc(C(F)(F)F)ccn3)c2)c1)C1CCCCC1` [Compound 29, N-(5-((Cyclohexyl(methyl)amino)methyl)-2-hydroxyphenyl)-3-((4-(trifluoromethyl)pyridin-2-yl)oxy)benzamide], the IC50 came out at 7.6 ± 1.8 nM.

With `O=C(Nc1cc(CN2CCOCC2)ccn1)c1cccc(Oc2cc(C(F)(F)F)ccn2)c1` [Compound 35, N-(4-(Morpholinomethyl)pyridin-2-yl)-3-((4-(trifluoromethyl)pyridin-2-yl)oxy)benzamide], the IC50 is > 10000 nM.
